Test results from BindingDB's records for doi:10.1021/jm00034a005 (University of Paris, 1994).

Biological target: Neprilysin
Assay: In vivo inhibitory potency against neutral endopeptidase by displacement of [3H]HACBOGly binding in mouse kidney

Row | Compound | IC50 [nM]
1 | CCC(NC(=O)C(CS)C(C)c1ccccc1)C(=O)O (stereo not given) [2-(2-Mercaptomethyl-3-phenyl-butyrylamino)-butyric acid] | 6.3
2 | CC(NC(=O)C(CS)C(C)c1ccc2c(c1)OCO2)C(=O)O (stereo not given) [2-(3-Benzo[1,3]dioxol-5-yl-2-mercaptomethyl-butyrylamino)-propionic acid] | 2
3 | CC(c1ccc(F)c(F)c1)C(CS)C(=O)NC(Cc1ccc(O)cc1)C(=O)O (stereo not given) [2-[3-(3,4-Difluoro-phenyl)-2-mercaptomethyl-butyrylamino]-3-(4-hydroxy-phenyl)-propionic acid] | 5.2
4 | CC(NC(=O)C(CS)C(C)c1ccc(F)c(F)c1)C(=O)O (stereo not given) [2-[3-(3,4-Difluoro-phenyl)-2-mercaptomethyl-butyrylamino]-propionic acid] | 3.5
5 | CC(c1ccc(N)cc1)C(CS)C(=O)NC(Cc1ccc(O)cc1)C(=O)O (stereo not given) [2-[3-(4-Amino-phenyl)-2-mercaptomethyl-butyrylamino]-3-(4-hydroxy-phenyl)-propionic acid] | 16
6 | CC(c1ccc(F)cc1)C(CS)C(=O)NC(Cc1ccc(O)cc1)C(=O)O (stereo not given) [2-[3-(4-Fluoro-phenyl)-2-mercaptomethyl-butyrylamino]-3-(4-hydroxy-phenyl)-propionic acid] | 5.9
7 | CC(NC(=O)C(CS)C(C)c1ccc(F)cc1)C(=O)O (stereo not given) [2-[3-(4-Fluoro-phenyl)-2-mercaptomethyl-butyrylamino]-propionic acid] | 2
8 | O=C(NC(Cc1ccc(O)cc1)C(=O)O)C(CS)Cc1ccccc1 (stereo not given) [3-(4-Hydroxy-phenyl)-2-(2-mercaptomethyl-3-phenyl-propionylamino)-propionic acid] | 2
9 | CC(c1ccc(O)cc1)C(CS)C(=O)NC(Cc1ccc(O)cc1)C(=O)O (stereo not given) [3-(4-Hydroxy-phenyl)-2-[3-(4-hydroxy-phenyl)-2-mercaptomethyl-butyrylamino]-propionic acid] | 9
10 | CC(c1ccccc1)C(CS)C(=O)NC(COCc1ccccc1)C(=O)O (stereo not given) [3-Benzyloxy-2-(2-mercaptomethyl-3-phenyl-butyrylamino)-propionic acid] | 4
